Results from article PMC5650530 (ACS chemical biology, 2017).
Blank lines part the entries; values can stand above or below the compound they belong to.

Tests used:
rat OPC = assay: Monoculture rat OPC differentiation assay; details: alone or in combination with miconazole
ABHD10 = target: T1, ABHD10 (Homo sapiens, UniProt Q9NUJ1); assay: LiPIP probe competition in HEK293T cells, off-target ABHD10; type: binding; details: ligand 25 μM
T1 sequence (Q9NUJ1 53-306): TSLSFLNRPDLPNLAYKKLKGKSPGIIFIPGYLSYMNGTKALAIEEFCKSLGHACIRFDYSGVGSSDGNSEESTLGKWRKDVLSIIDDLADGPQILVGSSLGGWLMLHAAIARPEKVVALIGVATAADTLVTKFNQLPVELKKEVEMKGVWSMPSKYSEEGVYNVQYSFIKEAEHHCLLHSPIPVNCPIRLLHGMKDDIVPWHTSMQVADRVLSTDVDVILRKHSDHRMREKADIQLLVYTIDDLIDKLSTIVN

ABHD5 = target: T2, ABHD5 (Homo sapiens, UniProt Q8WTS1); assay: LiPIP; type: binding; details: ligand at both 5 and 25 μM; probe 10 μM; HEK293T cells
T2 sequence (Q8WTS1 1-349): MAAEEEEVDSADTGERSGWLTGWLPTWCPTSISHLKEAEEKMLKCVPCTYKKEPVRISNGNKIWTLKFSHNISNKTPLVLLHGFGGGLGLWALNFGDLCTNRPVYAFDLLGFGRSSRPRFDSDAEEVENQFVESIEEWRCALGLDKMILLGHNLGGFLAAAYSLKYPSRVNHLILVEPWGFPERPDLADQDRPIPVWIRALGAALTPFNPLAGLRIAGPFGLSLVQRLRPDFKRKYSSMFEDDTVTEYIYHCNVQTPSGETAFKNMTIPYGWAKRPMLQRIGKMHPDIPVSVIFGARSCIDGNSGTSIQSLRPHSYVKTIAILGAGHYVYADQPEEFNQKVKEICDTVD

PNPLA2 = target: T3, PNPLA2 (Homo sapiens, UniProt Q96AD5); assay: LiPIP probe competition in HEK293T cells, PNPLA2; type: binding; details: unaltered lipid probe enrichment ratio
T3 sequence (Q96AD5 1-504): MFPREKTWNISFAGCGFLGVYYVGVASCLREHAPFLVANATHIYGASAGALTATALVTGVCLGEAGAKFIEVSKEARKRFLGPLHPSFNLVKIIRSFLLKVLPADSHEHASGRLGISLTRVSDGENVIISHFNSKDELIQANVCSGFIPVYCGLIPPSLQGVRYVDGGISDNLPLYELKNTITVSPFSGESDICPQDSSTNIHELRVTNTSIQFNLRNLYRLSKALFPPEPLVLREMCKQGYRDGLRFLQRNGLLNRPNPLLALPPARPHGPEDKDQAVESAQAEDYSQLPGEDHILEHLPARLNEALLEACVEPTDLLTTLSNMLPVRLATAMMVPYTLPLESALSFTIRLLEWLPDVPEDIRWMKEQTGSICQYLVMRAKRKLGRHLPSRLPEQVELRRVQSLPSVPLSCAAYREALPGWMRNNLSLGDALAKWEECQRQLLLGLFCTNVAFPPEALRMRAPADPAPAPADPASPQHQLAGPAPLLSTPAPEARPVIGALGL

hSGPL1 = target: T4, hSGPL1 (Homo sapiens, UniProt O95470); type: biochemical
T4 sequence (O95470 1-568): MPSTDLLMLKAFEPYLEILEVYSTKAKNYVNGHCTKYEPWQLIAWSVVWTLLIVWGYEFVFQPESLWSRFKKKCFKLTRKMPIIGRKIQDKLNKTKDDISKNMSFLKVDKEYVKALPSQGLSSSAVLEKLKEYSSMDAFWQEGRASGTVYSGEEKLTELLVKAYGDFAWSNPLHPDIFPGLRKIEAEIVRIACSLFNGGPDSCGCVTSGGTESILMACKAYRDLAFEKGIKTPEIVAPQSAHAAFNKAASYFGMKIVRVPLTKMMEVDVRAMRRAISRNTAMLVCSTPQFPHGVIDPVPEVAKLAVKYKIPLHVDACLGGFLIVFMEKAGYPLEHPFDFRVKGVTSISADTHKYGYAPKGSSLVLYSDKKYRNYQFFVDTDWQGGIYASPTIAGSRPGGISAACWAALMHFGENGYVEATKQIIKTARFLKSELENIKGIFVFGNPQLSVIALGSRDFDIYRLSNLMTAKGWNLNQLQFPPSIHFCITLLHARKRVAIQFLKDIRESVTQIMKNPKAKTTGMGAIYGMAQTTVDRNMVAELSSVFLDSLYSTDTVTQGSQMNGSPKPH

[1] = system: oligodendrocyte precursor cell (OPC); details: cited from earlier work
Neuro2a cells = assay: Endogenous S1P content of Neuro2a cells by targeted LC-MS/MS; type: cell-based, mouse; details: 6 h treatment
mSGPL1 [2] = target: T5, mSGPL1 (Mus musculus, UniProt Q8R0X7); assay: AEA-DA probe interactions with mSGPL1 in vitro; type: binding; details: Fig. S3c
T5 sequence (Q8R0X7 1-568): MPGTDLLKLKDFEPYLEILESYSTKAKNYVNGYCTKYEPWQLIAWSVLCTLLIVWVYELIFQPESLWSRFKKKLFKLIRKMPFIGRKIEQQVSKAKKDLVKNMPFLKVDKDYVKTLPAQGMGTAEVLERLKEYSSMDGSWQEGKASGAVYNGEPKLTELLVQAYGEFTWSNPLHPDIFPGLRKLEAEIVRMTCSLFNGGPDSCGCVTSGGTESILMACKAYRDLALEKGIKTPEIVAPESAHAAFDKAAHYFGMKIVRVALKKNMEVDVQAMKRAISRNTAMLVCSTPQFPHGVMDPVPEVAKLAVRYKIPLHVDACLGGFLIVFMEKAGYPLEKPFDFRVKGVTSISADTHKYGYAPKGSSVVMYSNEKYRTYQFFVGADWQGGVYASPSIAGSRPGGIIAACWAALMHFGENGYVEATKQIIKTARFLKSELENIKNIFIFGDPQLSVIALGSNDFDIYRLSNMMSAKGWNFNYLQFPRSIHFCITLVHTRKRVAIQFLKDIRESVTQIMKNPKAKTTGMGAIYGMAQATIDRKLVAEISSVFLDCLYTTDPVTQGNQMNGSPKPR

EPHX2 = target: T6, EPHX2 (Homo sapiens, UniProt P34913); assay: LiPIP probe competition in HEK293T cells, off-target EPHX2; type: binding; details: ligand 25 μM
T6 sequence (P34913 1-555): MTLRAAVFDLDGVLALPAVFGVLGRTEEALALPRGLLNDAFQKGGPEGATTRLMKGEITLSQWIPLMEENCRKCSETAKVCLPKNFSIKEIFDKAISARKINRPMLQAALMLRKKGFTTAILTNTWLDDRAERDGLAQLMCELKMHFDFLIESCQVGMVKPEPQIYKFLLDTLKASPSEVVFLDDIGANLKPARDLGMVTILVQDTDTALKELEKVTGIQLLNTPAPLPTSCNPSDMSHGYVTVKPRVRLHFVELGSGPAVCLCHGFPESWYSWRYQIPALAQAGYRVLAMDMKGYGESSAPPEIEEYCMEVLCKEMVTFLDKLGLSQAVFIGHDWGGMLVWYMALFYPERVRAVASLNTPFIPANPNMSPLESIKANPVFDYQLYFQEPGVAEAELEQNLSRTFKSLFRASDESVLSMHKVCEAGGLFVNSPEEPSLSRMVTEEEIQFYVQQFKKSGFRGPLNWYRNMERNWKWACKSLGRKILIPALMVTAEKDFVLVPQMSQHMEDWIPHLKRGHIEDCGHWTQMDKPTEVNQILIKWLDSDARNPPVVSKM

mSGPL1 [3] = target: T5, mSGPL1; type: biochemical; details: tested at concentrations up to 200 μM
SGPL1 = target: T7, SGPL1 (Mus musculus, UniProt Q8R0X7); assay: LiPIP in Neuro2a cells, SGPL1; type: binding; details: drug 30 μM, lipid probe 10 μM
T7 sequence (Q8R0X7 1-568): T5 sequence (Q8R0X7 1-568)

EPHX1 = target: T8, EPHX1 (Mus musculus, UniProt Q9D379); assay: LiPIP in Neuro2a cells, EPHX1; type: binding; details: drug 30 μM, lipid probe 10 μM
T8 sequence (Q9D379 1-455): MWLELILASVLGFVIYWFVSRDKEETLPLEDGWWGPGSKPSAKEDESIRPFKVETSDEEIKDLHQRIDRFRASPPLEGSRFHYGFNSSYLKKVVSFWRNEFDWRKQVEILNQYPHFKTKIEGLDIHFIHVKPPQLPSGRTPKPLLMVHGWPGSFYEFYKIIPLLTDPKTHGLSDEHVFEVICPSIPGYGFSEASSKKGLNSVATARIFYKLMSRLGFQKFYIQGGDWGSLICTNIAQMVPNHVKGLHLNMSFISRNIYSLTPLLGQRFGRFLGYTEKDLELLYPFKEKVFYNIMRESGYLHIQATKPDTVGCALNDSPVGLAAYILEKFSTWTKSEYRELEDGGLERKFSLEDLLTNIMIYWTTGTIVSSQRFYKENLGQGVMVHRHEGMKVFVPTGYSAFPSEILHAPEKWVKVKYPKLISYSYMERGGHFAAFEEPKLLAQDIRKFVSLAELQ

TMEM97 = target: T9, TMEM97 (Mus musculus, UniProt Q8VD00); assay: LiPIP in Neuro2a cells, TMEM97; type: binding; details: drug 30 μM, lipid probe 10 μM
T9 sequence (Q8VD00 1-176): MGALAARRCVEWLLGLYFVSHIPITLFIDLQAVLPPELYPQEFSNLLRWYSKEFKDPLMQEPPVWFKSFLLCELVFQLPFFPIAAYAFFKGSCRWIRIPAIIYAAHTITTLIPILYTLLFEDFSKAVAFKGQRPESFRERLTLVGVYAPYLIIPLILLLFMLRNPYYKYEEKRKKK

CLPP = CLPP (Mus musculus, UniProt O88696); assay: LiPIP in Neuro2a cells, CLPP; type: binding; details: drug 30 μM, lipid probe 10 μM
CLPP, sequence (O88696 53-272): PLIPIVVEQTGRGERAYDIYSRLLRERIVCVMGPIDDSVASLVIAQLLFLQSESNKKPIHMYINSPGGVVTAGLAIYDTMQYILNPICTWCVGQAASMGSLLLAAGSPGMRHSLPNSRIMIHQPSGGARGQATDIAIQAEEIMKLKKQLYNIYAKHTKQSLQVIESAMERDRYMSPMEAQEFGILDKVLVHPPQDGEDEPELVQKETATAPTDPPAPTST

mSGPL1 [4] = target: T5, mSGPL1; assay: Gel-based blockade of AEA-DA labeling of recombinant mSGPL1 in HEK293T cells; type: binding; details: recombinant mSGPL1 expressed in HEK293T cells; AEA-DA 2 μM
rSGPL1 = target: T10, rSGPL1 (Rattus norvegicus, UniProt Q8CHN6); type: biochemical; details: tested at concentrations up to 200 μM
T10 sequence (Q8CHN6 1-568): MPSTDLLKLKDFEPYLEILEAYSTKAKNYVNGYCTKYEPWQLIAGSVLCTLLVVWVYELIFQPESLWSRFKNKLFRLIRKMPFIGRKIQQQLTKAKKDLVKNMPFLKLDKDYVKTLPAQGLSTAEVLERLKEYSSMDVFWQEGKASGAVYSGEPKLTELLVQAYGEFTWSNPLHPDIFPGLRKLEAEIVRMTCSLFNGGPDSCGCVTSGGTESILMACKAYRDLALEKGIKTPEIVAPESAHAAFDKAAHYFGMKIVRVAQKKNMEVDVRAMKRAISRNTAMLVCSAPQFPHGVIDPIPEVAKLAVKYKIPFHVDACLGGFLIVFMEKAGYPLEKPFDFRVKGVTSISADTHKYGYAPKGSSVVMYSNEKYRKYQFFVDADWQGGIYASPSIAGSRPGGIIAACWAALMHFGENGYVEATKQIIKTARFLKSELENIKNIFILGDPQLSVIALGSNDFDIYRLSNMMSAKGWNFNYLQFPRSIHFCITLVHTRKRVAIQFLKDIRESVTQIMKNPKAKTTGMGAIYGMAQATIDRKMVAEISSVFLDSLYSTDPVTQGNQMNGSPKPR

Structure (SMILES): CCCCCCCCc1ccc(CC[C@](N)(CO)COP(=O)(O)O)cc1 [(S)-pFTY720]
effect on OPC differentiation (MBP+ cells) (rat OPC): no impact on OPC differentiation

Structure (SMILES): Clc1ccc(COC(Cn2ccnc2)c2ccc(Cl)cc2Cl)c(Cl)c1 (stereo not drawn) [miconazole]
IC50 (hSGPL1): 6.5 µM | maximal inhibition of hSGPL1 (plateau) (hSGPL1; fluorogenic S1P substrate analog): 40% | OPC differentiation by phenotypic screening [1]: promote oligodendrocyte precursor cell (OPC) differentiation | effect on endogenous S1P content (Neuro2a cells): increased the endogenous S1P content | effect on OPC differentiation (MBP+ cells) (rat OPC): promotion of rat OPC differentiation

Structure (SMILES): CCCCCCCCCCCCC/C=C/[C@@H](O)[C@@H](N)COP(=O)(O)O [S1P, sphingosine 1-phosphate]
blockade of AEA-DA probe interactions with mSGPL1 in vitro (mSGPL1 [2]): inhibited AEA-DA binding to SGPL1

Structure (SMILES): C[C@@H]1CN(c2nnc(Cc3ccccc3)c3ccc(C#N)cc23)CCN1c1ccc(C#N)cn1 [compound 11, (R)-1-benzyl-4-(4-(5-cyanopyridin-2-yl)-3-methylpiperazin-1-yl)phthalazine-6-carbonitrile]
effect on OPC differentiation (MBP+ cells) (rat OPC): did not promote OPC differentiation

Structure (SMILES): C[C@@H](c1ncncc1F)[C@](O)(Cn1cncn1)c1ccc(F)cc1F [voriconazole]
inhibition of mSGPL1 activity (mSGPL1 [3]): did not inhibit | SILAC ratio (light/heavy), SGPL1 (SGPL1): ~ 1.0 | blockade of AEA-DA probe interactions with mSGPL1 in vitro (mSGPL1 [2]): but not voriconazole | SILAC ratio (light/heavy), EPHX1 (EPHX1): ~ 1.0 | inhibition of hSGPL1 activity (hSGPL1; tested at concentrations up to 200 μM): did not inhibit | OPC differentiation by phenotypic screening [1]: inactive | SILAC ratio (light/heavy), TMEM97 (TMEM97): ~ 1.0 | SILAC ratio (light/heavy), CLPP (CLPP): ~ 1.0 | blockade of AEA-DA probe binding to mSGPL1 (mSGPL1 [4]): but not voriconazole | inhibition of rSGPL1 activity (rSGPL1): did not inhibit

Further lines, results first:

SILAC ratio (LiPIP probe displacement), ABHD10 (ABHD10): ≥ 3.0 | blocking the A-DA or AEA-DA probe interaction with ABHD5 (ABHD5): > 80% | engagement of PNPLA2 (lipid probe enrichment ratio) (PNPLA2): not directly engaged
Structure (SMILES): Cc1ccc2c(CC(=O)N3CCN(S(=O)(=O)c4ccc5c(c4)OCCO5)CC3)coc2c1 [SR-4559]

blocking the A-DA or AEA-DA probe interaction with ABHD5 (ABHD5): > 80% | engagement of PNPLA2 (lipid probe enrichment ratio) (PNPLA2): not directly engaged | SILAC ratio (LiPIP probe displacement), EPHX2 (EPHX2): ≥ 3.0
Structure (SMILES): CCCCNC(=O)Nc1ccc2c(c1)N(C)C(=O)c1ccccc1S2 [SR-4995]
